Laboratory results from the SangsterLogP compilation.

Experiment: not given
Settings: not given

Row | logP | Compound
1 | 0.3 | O=c1ccnc2ccccn12
2 | 1.58 | CCc1cnc2cccc(C)n2c1=O
3 | 0.13 | O=c1ccnc2n1CCCC2
4 | 0.37 | CC1CCCc2nccc(=O)n21 (stereo not given)

Experiment: method code SF-AS, from DOI: 10.1016/s0021-9673(01)88398-9
Settings: pH 5.0

Row | logD | Compound
5 | 1.86 | CCc1c(C)nc2cccc(C)n2c1=O
6 | 1.27 | Cc1cnc2cccc(C)n2c1=O
7 | 0.67 | Cc1cc(=O)n2c(n1)CCCC2C (stereo not given)
8 | 1.43 | CCc1c(C)nc2n(c1=O)C(C)CCC2 (stereo not given)
9 | 2.22 | CCCc1c(C)nc2cccc(C)n2c1=O
10 | 0.74 | Cc1cccc2nccc(=O)n12
